Source: ChEMBL document CHEMBL1938230, “6-Position optimization of tricyclic 4-quinolone-based inhibitors of glycogen synthase kinase-3β: discovery of nitrile derivatives with picomolar potency” (Bioorg Med Chem Lett, 2012)

How the values were obtained:
[1] = target: T1, Serine/threonine-protein kinase A-Raf (Homo sapiens) (UniProt P10398); experiment: Inhibition of human ARAF in HL-60 cells lysate assessed as reduction of labeling of acyl-phosphate ATP probe at 100 nM; format: cell-free
T1 sequence (whole entry): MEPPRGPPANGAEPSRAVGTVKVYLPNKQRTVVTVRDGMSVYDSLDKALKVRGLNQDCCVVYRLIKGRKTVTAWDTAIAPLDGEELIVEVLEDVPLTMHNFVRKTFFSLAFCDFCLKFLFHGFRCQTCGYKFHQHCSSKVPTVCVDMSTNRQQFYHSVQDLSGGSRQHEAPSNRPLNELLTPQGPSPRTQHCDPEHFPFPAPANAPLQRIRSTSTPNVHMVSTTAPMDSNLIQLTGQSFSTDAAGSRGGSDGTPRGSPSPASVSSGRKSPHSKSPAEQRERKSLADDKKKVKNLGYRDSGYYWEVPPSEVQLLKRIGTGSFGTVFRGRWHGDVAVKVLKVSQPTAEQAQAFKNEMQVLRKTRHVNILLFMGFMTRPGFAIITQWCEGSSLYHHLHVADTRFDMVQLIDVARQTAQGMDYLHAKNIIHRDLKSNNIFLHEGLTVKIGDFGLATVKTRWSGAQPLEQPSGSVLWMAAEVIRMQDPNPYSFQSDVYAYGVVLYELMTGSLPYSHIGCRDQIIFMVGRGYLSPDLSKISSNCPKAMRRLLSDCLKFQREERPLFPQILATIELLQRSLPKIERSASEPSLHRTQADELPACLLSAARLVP

HL-60 [2] = experiment: Inhibition of human KSR1/KSR2 in HL-60 cells lysate assessed as reduction of labeling of acyl-phosphate ATP probe at 100 nM
[3] = target: Dual specificity tyrosine-phosphorylation-regulated kinase 1B (Homo sapiens) (UniProt Q9Y463); experiment: Inhibition of human DYRK1B in HL-60 cells lysate assessed as reduction of labeling of acyl-phosphate ATP probe at 100 nM; format: cell-free
[4] = target: T2, Serine/threonine-protein kinase ULK3 (Homo sapiens) (UniProt Q6PHR2); experiment: Inhibition of human ULK3 in HL-60 cells lysate assessed as reduction of labeling of acyl-phosphate ATP probe at 100 nM; format: cell-free
T2 sequence (whole entry): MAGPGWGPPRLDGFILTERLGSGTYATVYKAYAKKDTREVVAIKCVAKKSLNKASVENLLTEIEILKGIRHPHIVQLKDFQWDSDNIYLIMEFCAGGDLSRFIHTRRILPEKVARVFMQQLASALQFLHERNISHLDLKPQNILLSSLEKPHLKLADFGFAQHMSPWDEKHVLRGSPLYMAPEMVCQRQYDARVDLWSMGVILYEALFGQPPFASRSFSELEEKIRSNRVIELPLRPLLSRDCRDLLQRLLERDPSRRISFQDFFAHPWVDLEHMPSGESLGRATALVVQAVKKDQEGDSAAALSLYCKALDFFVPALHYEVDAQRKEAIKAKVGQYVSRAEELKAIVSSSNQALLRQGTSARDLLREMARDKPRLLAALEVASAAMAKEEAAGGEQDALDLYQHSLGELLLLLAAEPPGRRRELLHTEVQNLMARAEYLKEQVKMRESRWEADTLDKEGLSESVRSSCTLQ

[5] = target: T3, Receptor-interacting serine/threonine-protein kinase 1 (Homo sapiens) (UniProt Q13546); experiment: Inhibition of human RIPK1 in HL-60 cells lysate assessed as reduction of labeling of acyl-phosphate ATP probe at 100 nM; format: cell-free
T3 sequence (whole entry): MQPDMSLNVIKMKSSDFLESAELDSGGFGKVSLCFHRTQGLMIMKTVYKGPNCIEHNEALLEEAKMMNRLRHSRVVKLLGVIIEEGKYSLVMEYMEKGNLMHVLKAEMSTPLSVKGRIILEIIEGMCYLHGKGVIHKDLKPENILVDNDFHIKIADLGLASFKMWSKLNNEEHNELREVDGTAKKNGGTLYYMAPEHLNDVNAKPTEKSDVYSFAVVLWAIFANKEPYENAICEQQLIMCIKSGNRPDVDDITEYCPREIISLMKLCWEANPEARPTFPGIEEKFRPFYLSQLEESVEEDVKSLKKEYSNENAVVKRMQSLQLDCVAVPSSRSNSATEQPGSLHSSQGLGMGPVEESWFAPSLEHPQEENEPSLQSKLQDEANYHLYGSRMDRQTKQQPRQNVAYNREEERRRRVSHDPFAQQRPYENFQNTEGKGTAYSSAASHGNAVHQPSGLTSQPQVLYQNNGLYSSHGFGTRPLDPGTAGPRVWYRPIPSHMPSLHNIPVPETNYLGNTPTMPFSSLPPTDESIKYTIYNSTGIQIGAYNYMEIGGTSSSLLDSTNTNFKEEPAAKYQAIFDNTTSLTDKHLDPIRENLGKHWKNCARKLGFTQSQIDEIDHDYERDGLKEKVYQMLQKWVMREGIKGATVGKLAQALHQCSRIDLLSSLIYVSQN

[6] = target: Cyclin-dependent kinase 2 (Homo sapiens) (UniProt P24941); experiment: Inhibition of human CDK2 in HL-60 cells lysate assessed as reduction of labeling of acyl-phosphate ATP probe at 100 nM; format: cell-free
HL-60 [7] = experiment: Inhibition of human Wnk1/Wnk2/Wnk3 in HL-60 cells lysate assessed as reduction of labeling of acyl-phosphate ATP probe at 100 nM
[8] = target: Serine/threonine-protein kinase 24 (Homo sapiens) (UniProt Q9Y6E0); experiment: Inhibition of human MST3 in HL-60 cells lysate assessed as reduction of labeling of acyl-phosphate ATP probe at 100 nM; format: cell-free
[9] = target: Dual specificity mitogen-activated protein kinase kinase 1 (Homo sapiens) (UniProt Q02750); experiment: Inhibition of human MAP2K1 in HL-60 cells lysate assessed as reduction of labeling of acyl-phosphate ATP probe at 100 nM; format: cell-free
HL-60 [10] = experiment: Inhibition of human TAO1/TAO3 in HL-60 cells lysate assessed as reduction of labeling of acyl-phosphate ATP probe at 100 nM
[11] = target: T4, Dual specificity mitogen-activated protein kinase kinase 7 (Homo sapiens) (UniProt O14733); experiment: Inhibition of human MAP2K7 in HL-60 cells lysate assessed as reduction of labeling of acyl-phosphate ATP probe at 100 nM; format: cell-free
T4 sequence (whole entry): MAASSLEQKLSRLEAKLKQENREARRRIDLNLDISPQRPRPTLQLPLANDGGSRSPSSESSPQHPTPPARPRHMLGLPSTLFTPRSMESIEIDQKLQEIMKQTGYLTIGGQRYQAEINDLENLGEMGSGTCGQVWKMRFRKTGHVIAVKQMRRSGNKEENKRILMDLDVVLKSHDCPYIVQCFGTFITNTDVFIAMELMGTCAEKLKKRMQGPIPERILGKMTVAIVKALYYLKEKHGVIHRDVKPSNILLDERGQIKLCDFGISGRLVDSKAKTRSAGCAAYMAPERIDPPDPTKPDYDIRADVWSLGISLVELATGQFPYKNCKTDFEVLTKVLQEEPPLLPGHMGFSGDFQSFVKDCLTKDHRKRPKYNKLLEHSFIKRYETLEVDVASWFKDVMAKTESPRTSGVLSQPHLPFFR

Sequence of Dual specificity mitogen-activated protein kinase kinase 1 (Homo sapiens) (Q02750 whole entry): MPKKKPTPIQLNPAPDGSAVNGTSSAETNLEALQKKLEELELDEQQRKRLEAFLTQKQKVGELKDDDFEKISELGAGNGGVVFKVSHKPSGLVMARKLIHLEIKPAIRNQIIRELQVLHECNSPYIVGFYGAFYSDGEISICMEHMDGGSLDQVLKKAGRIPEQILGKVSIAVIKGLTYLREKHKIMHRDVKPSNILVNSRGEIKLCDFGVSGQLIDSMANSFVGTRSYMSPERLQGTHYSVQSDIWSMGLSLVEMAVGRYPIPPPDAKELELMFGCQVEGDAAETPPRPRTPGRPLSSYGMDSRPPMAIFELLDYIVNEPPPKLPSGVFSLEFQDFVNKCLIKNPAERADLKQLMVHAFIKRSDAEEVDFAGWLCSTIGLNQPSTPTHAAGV
Sequence of Dual specificity tyrosine-phosphorylation-regulated kinase 1B (Homo sapiens) (Q9Y463 whole entry, looked up): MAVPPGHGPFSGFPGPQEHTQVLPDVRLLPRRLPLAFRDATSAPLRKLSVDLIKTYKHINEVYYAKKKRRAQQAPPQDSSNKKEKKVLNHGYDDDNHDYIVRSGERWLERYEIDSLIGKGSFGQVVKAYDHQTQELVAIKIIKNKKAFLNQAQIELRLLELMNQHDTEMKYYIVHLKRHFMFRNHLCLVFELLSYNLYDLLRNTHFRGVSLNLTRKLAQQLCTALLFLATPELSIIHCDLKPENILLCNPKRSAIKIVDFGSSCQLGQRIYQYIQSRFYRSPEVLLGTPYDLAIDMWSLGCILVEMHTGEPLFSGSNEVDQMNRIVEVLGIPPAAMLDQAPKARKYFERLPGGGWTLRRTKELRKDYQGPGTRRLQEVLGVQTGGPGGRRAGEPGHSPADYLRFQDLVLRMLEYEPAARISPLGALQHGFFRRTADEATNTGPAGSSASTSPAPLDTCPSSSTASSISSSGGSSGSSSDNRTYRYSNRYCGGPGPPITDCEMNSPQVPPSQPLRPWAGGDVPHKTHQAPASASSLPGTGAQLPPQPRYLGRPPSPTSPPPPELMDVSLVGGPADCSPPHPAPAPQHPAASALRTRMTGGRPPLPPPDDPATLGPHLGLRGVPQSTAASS
Sequence of Serine/threonine-protein kinase 24 (Homo sapiens) (Q9Y6E0 whole entry, looked up): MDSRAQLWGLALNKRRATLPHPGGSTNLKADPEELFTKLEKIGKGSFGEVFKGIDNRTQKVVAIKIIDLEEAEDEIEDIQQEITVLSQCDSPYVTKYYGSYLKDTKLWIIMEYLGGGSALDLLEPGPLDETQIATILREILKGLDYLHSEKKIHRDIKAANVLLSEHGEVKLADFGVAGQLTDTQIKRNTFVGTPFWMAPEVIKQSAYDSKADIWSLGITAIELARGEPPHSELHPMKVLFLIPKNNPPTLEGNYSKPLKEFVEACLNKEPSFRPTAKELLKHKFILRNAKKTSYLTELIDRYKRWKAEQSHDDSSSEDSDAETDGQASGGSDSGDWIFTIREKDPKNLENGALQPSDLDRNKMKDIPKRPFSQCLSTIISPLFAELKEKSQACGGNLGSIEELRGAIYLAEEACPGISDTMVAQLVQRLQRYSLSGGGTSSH

| inhibition [1] [%] | inhibition [3] [%] | inhibition [4] [%] | inhibition [5] [%] | inhibition [6] [%] | inhibition [8] [%] | inhibition [9] [%] | inhibition [11] [%] | Compound | inhibition at 0.1 µM (HL-60 [2]) [%] | inhibition at 0.1 µM (HL-60 [7]) [%] | inhibition at 0.1 µM (HL-60 [10]) [%] |
| --- | --- | --- | --- | --- | --- | --- | --- | --- | --- | --- | --- |
| < 35 | < 35 | < 35 | < 35 | < 35 | < 35 | < 35 | < 35 | C[C@H]1COc2c(NCCCc3ccccn3)c(F)c(N)c3c(=O)c(C#N)cn1c23 | < 35 | < 35 | < 35 |
| < 35 | < 35 | < 35 | < 35 | < 35 | < 35 | < 35 | < 35 | C[C@H]1COc2c(NCCCn3cccn3)c(F)c(N)c3c(=O)c(C#N)cn1c23 | < 35 | < 35 | < 35 |
| < 35 | < 35 | < 35 | < 35 | < 35 | < 35 | < 35 | < 35 | C[C@H]1COc2c(NCCCc3ccccn3)c(F)c(N)c3c(=O)c(C(=O)O)cn1c23 | < 35 | < 35 | < 35 |
| < 35 | < 35 | < 35 | < 35 | < 35 | < 35 | < 35 | < 35 | C[C@H]1COc2c(NCCCn3cccn3)c(F)c(N)c3c(=O)c(C(=O)O)cn1c23 | < 35 | < 35 | < 35 |
